Data as given in article PMC2954223, “Structure of a tryptophanyl-tRNA synthetase containing an iron–sulfur cluster” (Acta Crystallographica Section F: Structural Biology and …, 2010).

What was measured:
TmTrpRS (TM0492) [1] = target: T1, TmTrpRS (TM0492) (Thermotoga maritima, UniProt Q9WYW2); assay: X-ray crystal structure, […] Å; X-ray fluorescence scan; mass spectrometry; assay type: binding; details: TAB domain; chelated by Cys236, Cys259, Cys266, Cys269; co-purified; crystallised at pH 6.5, 277 K
T1 construct: gene trpS; full-length with noncleavable N-terminal tag MGSDKIHHHHHH (kept in crystal), expressed in E. coli DL41; native TTG start codon lies in forward primer after the tag; model residues 0-328, 113-119 disordered; homodimer
T1 sequence (Q9WYW2 1-328): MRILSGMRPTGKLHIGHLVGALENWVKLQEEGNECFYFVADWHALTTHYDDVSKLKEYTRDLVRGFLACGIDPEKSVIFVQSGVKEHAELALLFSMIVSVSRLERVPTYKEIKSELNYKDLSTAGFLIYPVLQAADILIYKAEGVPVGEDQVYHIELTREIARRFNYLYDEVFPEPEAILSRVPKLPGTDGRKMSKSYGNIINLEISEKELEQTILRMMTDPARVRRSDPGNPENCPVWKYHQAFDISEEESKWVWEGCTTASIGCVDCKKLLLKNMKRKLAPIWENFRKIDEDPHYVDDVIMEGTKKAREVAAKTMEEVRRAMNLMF

TmTrpRS (TM0492) [2] = target: T1, TmTrpRS (TM0492); assay: X-ray crystal structure, […] Å; assay type: binding; details: active site (Rossmann-fold domain); endogenously bound, not added; crystallised at pH 6.5, 277 K

Row | SMILES | X-ray crystal structure, 2.50 Å; X-ray fluorescence scan; mass spectrometry (TmTrpRS (TM0492) [1]) | X-ray crystal structure, 2.50 Å (TmTrpRS (TM0492) [2])
1 | [S]12[Fe]3[S]4[Fe]1[S]1[Fe]2[S]3[Fe]41 [[4Fe–4S] cluster] | The [4Fe–4S] cluster is chelated by the side chains of Cys236, Cys259, Cys266 and Cys269 | 
2 | N[C@@H](Cc1c[nH]c2ccccc12)C(=O)O [L-tryptophan] |  | the structure revealed a bound L-tryptophan molecule in the Trp-binding pocket of the active site
